According to PubChem BioAssay (NCI):
Values joined by “and” are separate entries in the source; they are usually repeats but may differ in a detail not shown here. Equal entries are not always repeated.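 48-hour exposure; five concentrations; linearly interpolated endpoints. GI50: concentration for 50% inhibition of growth. TGI is the concentration that stops growth completely.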

Key:
Assay in all cases: DTP human tumour cell line panel, 48 h
ACHN renal = tested on: ACHN renal
BT-549 breast = tested on: BT-549 breast
EKVX NSCLC = tested on: EKVX NSCLC
HCT-15 colon = tested on: HCT-15 colon
HS 578T breast = tested on: HS 578T breast
LOX IMVI melanoma = tested on: LOX IMVI melanoma
MDA-MB-435 = tested on: MDA-MB-435
RXF 393 renal = tested on: RXF 393 renal
UACC-257 melanoma = tested on: UACC-257 melanoma
K-562 leukemia = tested on: K-562 leukemia

SMILES	TGI (ACHN renal)	TGI (BT-549 breast)	TGI (EKVX NSCLC)	TGI (HCT-15 colon)	TGI (HS 578T breast)	TGI (LOX IMVI melanoma) [µM]	TGI (MDA-MB-435)	TGI (RXF 393 renal)	TGI (UACC-257 melanoma)	GI50 (ACHN renal)	GI50 (BT-549 breast)	GI50 (EKVX NSCLC)	GI50 (HCT-15 colon)	GI50 (HS 578T breast)	GI50 (K-562 leukemia)	TGI (K-562 leukemia)	GI50 (LOX IMVI melanoma)	GI50 (MDA-MB-435) [µM]	GI50 (RXF 393 renal)	GI50 (UACC-257 melanoma)
CCCCCCCCCCCCNC(C)=O	70 µM	30.8 µM	25.6 µM	33.1 µM	31.1 µM	23.1	35.4 µM	43.4 µM	63.9 µM	–	–	–	–	–	–	–	–	–	–	–
CCCCC[C@H](O)/C=C/[C@@H]1[C@@H](C/C=C\CCCC(=O)O)[C@@H](O)C[C@H]1O	> 100 µM	> 100 µM	> 100 µM	> 100 µM	> 100 µM	> 100	> 100 µM	> 100 µM	> 100 µM	> 100 µM	> 100 µM	> 100 µM	> 100 µM	> 100 µM	> 100 µM	> 100 µM	> 100 µM	> 100	> 100 µM	> 100 µM
COc1cc2c(cc1O)CC[C@@H]1[C@@H]2CC[C@]2(C)[C@@H](NCCN(C)C)CC[C@@H]12	0.991 µM	0.858 µM	0.804 µM	0.454 µM	1.1 µM	0.405	0.133 µM	0.48 µM	0.254 µM	0.459 µM	0.334 µM	0.341 µM	0.111 µM	0.277 µM	0.0886 µM	0.395 µM	0.11 µM	0.0662	0.118 µM	0.114 µM
Cc1c2cc[n+](C)cc2c(C)c2c1sc1ccccc12	33.7 µM	1.37 µM	> 50.2 µM	> 100 µM	0.692 µM	22.1	6.18 µM	12 µM	7.01 µM	–	–	–	–	–	–	41.3 µM	–	–	–	–
Cc1ccc(S(=O)(=O)OC2CCN(C)CC2)cc1	> 100 µM	> 100 µM	> 100 µM	> 100 µM	> 100 µM	> 100	> 100 µM	> 100 µM	> 100 µM	–	–	–	–	–	–	40.4 µM	–	–	–	–
Cc1c(N2CCCC2)cc2c(c1NC(=O)c1ccccc1Cl)C(C)(C)CC2(C)C	28.4 µM	32 µM	29.9 µM	28.3 µM	38.4 µM	27.4	27.9 µM	27.5 µM	24.1 µM	–	–	–	–	–	–	> 100 µM	–	–	–	–
OC(c1cccc(-n2ccc(C(F)(F)F)n2)c1)c1cnccc1NC1CCCCCC1 (stereo not drawn)	3.02 µM	3.06 µM	3.16 µM	3.1 µM	3.69 µM	3.12	3.14 µM	2.74 µM	3.76 µM	1.65 µM	1.63 µM	1.66 µM	1.6 µM	1.64 µM	1.37 µM	4.96 µM	1.69 µM	1.73	1.36 µM	1.86 µM
C/C(=N\NC(=O)c1sc(=S)n(C)c1N)c1cc2ccccc2o1	38.4 µM	41.8 µM	29.3 µM	24.9 µM	31.2 µM	20.1	32 µM	27.8 µM	33.4 µM	13.4 µM	18.3 µM	11.9 µM	10.6 µM	11.7 µM	6.38 µM	30.8 µM	7.05 µM	8.65	13.2 µM	12.8 µM
N#Cc1c(-c2ccccc2)nc(SCC2CO2)nc1N1CCOCC1 (stereo not drawn)	> 100 µM	> 94.1 µM	> 78.5 µM	> 100 µM	11.8 µM	> 100	> 100 µM	> 100 µM	> 100 µM	4.27 µM	5.89 µM	4.73 µM	4.71 µM	1.93 µM	> 47.2 µM	> 100 µM	9.49 µM	9.56	13 µM	34.3 µM
O=C[C@@H](CO)O[C@H](C=O)c1c[nH]c(=O)[nH]c1=O	719 µM	286 µM	329 µM	327 µM	402 µM	886	155 µM	163 µM	657 µM	–	–	–	–	–	–	818 µM	–	–	–	–
CCc1nc(N)nc(N)c1-c1ccc(NCCN)c([N+](=O)[O-])c1	> 100 µM	> 100 µM	> 100 µM	> 100 µM	> 100 µM	> 100	> 100 µM	> 100 µM	72.9 µM	–	–	–	–	–	–	> 100 µM	–	–	–	–
CC12CCC3C(CCC4Cc5[nH]c6ccccc6c5CC43C)C1CCC2O (stereo not drawn)	> 100 µM	> 100 µM	> 100 µM	> 100 µM	1.88 µM	7.13	0.717 µM	3.31 µM	> 100 µM	0.967 µM	2.65 µM	3.69 µM	0.695 µM	0.362 µM	–	–	1.01 µM	0.241	0.738 µM	> 100 µM
O=[N+]([O-])c1ccc(S(=O)(=O)Cc2ccccc2)c([N+](=O)[O-])c1	2.92 µM	5.12 µM	4.36 µM	3.94 µM	> 91.7 µM	3.39	3.34 µM	3.4 µM	3.05 µM	–	–	–	–	–	–	> 100 µM	–	–	–	–
Cn1cc(-c2ccc3c(Nc4cccc(NC(=O)Nc5cccc(F)c5)c4)ncnc3c2)cn1	13.2 µM	16 µM	24.3 µM	13.1 µM	9.79 µM	3.64	2.89 µM	3.83 µM	22.5 µM	2.17 µM	4.04 µM	6.22 µM	2.5 µM	1.5 µM	2.14 µM	> 100 µM	1.55 µM	1.49	1.2 µM	4.5 µM
CC(=O)NCCc1c2c(c3nccc4c3c1Nc1ccccc1-4)OCS2	3.27 µM	19.7 µM	16.1 µM	8.77 µM	37 µM	3.85	18.9 µM	13.5 µM	27 µM	0.199 µM	6.13 µM	2.05 µM	1.26 µM	8.19 µM	2.93 µM	56.2 µM	1.26 µM	3.88	3.02 µM	13.8 µM
NC(=O)NNCc1ccccc1	> 100 µM	> 100 µM	> 100 µM	> 100 µM	> 100 µM	> 100	> 100 µM	> 100 µM	> 100 µM	–	–	–	–	–	–	> 100 µM	–	–	–	–
Clc1ccc(CSC(Cn2ccnc2)c2ccc(Cl)cc2Cl)cc1 (stereo not drawn)	6.5 µM	3.05 µM	4.55 µM	3.76 µM	5.02 µM	2.93	3.33 µM	2.76 µM	2.86 µM	2.28 µM	1.63 µM	1.53 µM	1.68 µM	1.97 µM	2 µM	4.81 µM	1.59 µM	1.71	1.43 µM	1.43 µM
O=C(Nc1ccc(Cl)c(Cl)c1)c1cccc(NC2=C(Cl)C(=O)N(Cc3ccccc3)C2=O)c1	> 100 µM	87.1 µM	64.5 µM	> 100 µM	> 100 µM	> 100	> 100 µM	65.6 µM	> 100 µM	39.8 µM	17.3 µM	20.2 µM	36.6 µM	45.4 µM	11.5 µM	> 100 µM	27 µM	35.7	25.1 µM	41.1 µM
COc1ccc(-c2cc(-c3cc(Cl)ccc3Cl)nc3n[nH]c(N)c23)cc1	> 100 µM	> 100 µM	> 100 µM	> 100 µM	87 µM	> 100	6.94 µM	> 100 µM	> 100 µM	37.8 µM	38.1 µM	34.6 µM	11.6 µM	25.3 µM	15.8 µM	> 100 µM	20.1 µM	2.65	29.5 µM	70.4 µM
CC[C@]12CCCN3CCc4c(n(c5ccccc45)C(=O)C1)[C@@H]32	> 100 µM	> 100 µM	> 100 µM	> 100 µM	49.1 µM	> 100	4.41 µM	63.7 µM	> 100 µM	–	–	–	–	–	–	> 100 µM	–	–	–	–
CC1(C)N=C(N)N=C(N)N1c1cccc(CCCCc2cccc(S(=O)(=O)F)c2)c1	> 100 µM	> 43.1 µM	> 100 µM	> 100 µM	> 100 µM	> 100	29 µM	> 100 µM	36.6 µM	11.8 µM	0.973 µM	19.2 µM	14.1 µM	51.1 µM	0.657 µM	> 100 µM	0.424 µM	0.329	2.13 µM	2.79 µM
CN(C)CCOc1ccc(-c2nc(-c3ccc4c(c3)CC/C4=N\O)c(-c3ccncc3)[nH]2)cc1	9.01 µM and 22 µM	9.3 µM and 44.1 µM	11 µM and 38.4 µM	25 µM and 57.4 µM	9.4 µM and 65.5 µM	6.46	5.17 µM and 41.2 µM	9.58 µM and 8.17 µM	1.07 µM and 2.74 µM	4.79 µM and 5.03 µM	4.73 µM and 15 µM	4.7 µM and 9 µM	9.22 µM and 15.5 µM	3.96 µM and 25.7 µM	4.74 µM and 1.95 µM	10.5 µM and 4.2 µM	0.934 µM and 1.51 µM	–	4.37 µM and 4.3 µM	0.0456 µM and 0.0489 µM
COc1ccc2oc(=O)cc(C(c3ccc[nH]3)c3ccc[nH]3)c2c1	13.1 µM	0.389 µM	21.5 µM	11.5 µM	50.5 µM	7.57	0.485 µM	0.44 µM	18 µM	0.124 µM	< 0.0505 µM	0.278 µM	0.1 µM	0.171 µM	0.118 µM	20.8 µM	0.104 µM	0.208	0.0902 µM	0.468 µM
COc1ccc(OC)c(/C=N/NC(=O)Cc2csc3nc(-c4ccc(Br)cc4)cn23)c1	34.5 µM	33.6 µM	57.6 µM	65.1 µM	45.4 µM	47.4	16.2 µM	67.4 µM	97.5 µM	16.9 µM	12.9 µM	17.1 µM	7.42 µM	11.6 µM	2.94 µM	6.94 µM	12.6 µM	3.96	19 µM	23.9 µM
CC(C)[C@]12O[C@H]1[C@@H]1O[C@]13[C@]1(O[C@H]1C[C@H]1C4=C(CC[C@@]13C)C(=O)OC4)[C@@H]2O	> 100 µM	0.178 µM and 0.0347 µM	0.0994 µM and 0.283 µM	> 2.93 µM	0.0554 µM and 0.0718 µM	0.0251	0.0214 µM and 0.0296 µM	0.0353 µM and < 0.0169 µM	0.0341 µM and 0.0476 µM	0.0102 µM	0.0214 µM and < 0.013 µM	0.0166 µM	0.0122 µM	–	0.0151 µM	> 100 µM	< 0.01 µM	0.0122	0.0172 µM and < 0.0107 µM	0.0101 µM and 0.0148 µM
CC[C@]1(O)CC(OC2CC(N(C)C)C(O)C(C)O2)c2c(cc3c(c2O)C(=O)c2c(O)cccc2C3=O)[C@@H]1C(=O)OC (stereo partly drawn)	0.963 µM	4.97 µM	3.86 µM	2.75 µM	4.21 µM	0.635	1.44 µM	1.76 µM	1.88 µM	–	–	–	–	–	–	0.982 µM	–	–	–	–
COc1ccc(C2CC(c3cc(OC)c(OC)c(OC)c3)=NO2)cc1OCCCCOc1cc2c(cc1OC)C(=O)N1CCC[C@H]1C=N2 (stereo partly drawn)	5.71 µM	3.54 µM	25 µM	5.54 µM	3.82 µM	2.84	> 100 µM	2.72 µM	4.96 µM	2.41 µM	1.23 µM	3.68 µM	2.27 µM	1.1 µM	1.26 µM	6.74 µM	1.47 µM	3.54	1.39 µM	2.33 µM
C=C1C(=O)O[C@H]2[C@H]1CC/C(CNC(=O)Cc1c[nH]c3ccccc13)=C\CC[C@@]1(C)O[C@@H]21	11.4 µM	15.8 µM	22.4 µM	13.1 µM	45.5 µM	1.54	13.4 µM	5.65 µM	–	1.11 µM	3.04 µM	10.6 µM	1.58 µM	11.9 µM	0.337 µM	11.1 µM	0.355 µM	0.862	1.3 µM	–
